Legend:
[1] = test system: protein interactions with AP2 DNA probe; test: EMSA with AP2 DNA probe, nuclear extracts of GHR-transfected WRL-68 cells; assay type: cell-based, human; settings: stimulated
Experimental: (§1) Cell culture: WRL-68 cells, a human fetal hepatic cell-line, were cultured in EMEM medium with NaHCO3 (Statens Veterinärmedicinska Anstalt), supplemented with 10% fetal bovine serum (FBS), 2% L-Glutamine, 1% Pyruvate and 1% Non essential amino acids (NEA), all from GIBCO. The cells were sub-cultivated twice weekly by trypsination to maintain a cell density of approximately 80%.
(§2) Transfection: Cells were transfected with human full-length GH-receptor (pMB1288, 2 μg/μl) by using DOTAP Liposomal Transfection Reagent (Roche), according to manufacturers manual. With this reagent a cationic liposome-mediated transfection method (lipofection) is used. […]
(§3) Extraction of nuclear proteins: To extract the proteins from the nuclei, the nuclear pellets were re-suspended in 2×lysis buffer with protease and phosphatase inhibitors (100 mM HEPES, pH 7.6, 300 mM NaCl, 10 mM EDTA (GIBCO), 2% Triton X-100 (Sigma), 0.2 mM PMSF, 0.2 mM sodium orto-vanadate, 2 nM okadaic acid, 1×complete), or EMSA buffer with inhibitors (20 mM Tris pH 8.0, 1.5 mM MgCl2, 0.2 mM EDTA, 25% glycerol, 0.5 mM PMSF, 0.2 mM sodium ortho-vanadate, 2 nM okadaic acid, 1×complete protease inhibitor), depending on whether the samples should also be used in electrophoresis mobility shift assays (EMSA) or not. For an optimal protein extraction, three different methods were evaluated. […]

[2] = test system: protein interactions with GHRE DNA probe; test: EMSA with GHRE DNA probe, nuclear extracts of GHR-transfected and non-transfected WRL-68 cells; assay type: cell-based, human
Experimental: as §1
Transfection: Cells were transfected with human full-length GH-receptor (pMB1288, 2 μg/μl) by using DOTAP Liposomal Transfection Reagent (Roche), according to manufacturers manual. With this reagent a cationic liposome-mediated transfection method (lipofection) is used. T75 flasks with WRL-68 cells were transfected with 10 μg DNA for each flask. 5 μl (10 μg) DNA was diluted with 250 μl OPTIMEM1 medium (GIBCO) and mixed gently with 75 μl DOTAP reagent diluted in 175 μl OPTIMEM1 medium. The mixture was incubated for 10 minutes and then mixed gently with 10 ml OPTIMEM1 medium. Cells were washed once and then incubated for 4 hours with the DNA/DOTAP transfection mix, which was then changed to fresh culture medium. Cells were re-seeded into new culture dishes the following day.
(§4) Stimulation: Cells were stimulated two days after transfection at a confluence of approximately 80%. […]
(§5) Extraction of nuclear proteins: To extract the proteins from the nuclei, the nuclear pellets were re-suspended in 2×lysis buffer with protease and phosphatase inhibitors (100 mM HEPES, pH 7.6, 300 mM NaCl, 10 mM EDTA (GIBCO), 2% Triton X-100 (Sigma), 0.2 mM PMSF, 0.2 mM sodium orto-vanadate, 2 nM okadaic acid, 1×complete), or EMSA buffer with inhibitors (20 mM Tris pH 8.0, 1.5 mM MgCl2, 0.2 mM EDTA, 25% glycerol, 0.5 mM PMSF, 0.2 mM sodium ortho-vanadate, 2 nM okadaic acid, 1×complete protease inhibitor), depending on whether the samples should also be used in electrophoresis mobility shift assays (EMSA) or not. For an optimal protein extraction, three different methods were evaluated. […] Optimal extraction was evaluated by Western blot and protein concentration determination as described below. […]

[3] = test system: protein interactions with OCT1 DNA probe; test: EMSA with OCT1 DNA probe, nuclear extracts of WRL-68 cells; assay type: cell-based, human; settings: stimulated
Experimental: as §1, §2, §3

[4] = test system: AP1 transcription factor binding to AP1 DNA probe; test: EMSA with AP1 DNA probe (control), nuclear extracts of non-transfected WRL-68 cells; assay type: cell-based, human; settings: stimulated
Experimental: as §1, §4, §5

[5] = test system: protein-DNA binding to GHRE DNA probe; test: EMSA with GHRE DNA probe, HX rat liver nuclear extracts; parameters: species or system Sprague Dawley rat; settings: HX rats stimulated with hGH vs control animals
Experimental: (§6) Nuclear and cytosolic fractions were prepared from hypophysectomized Sprague Dawley rat livers (ethical license N176/02). The rats had minipumps implanted at 5 weeks of age for administration of hGH. Control animals were not stimulated and thus completely GH-deficient while GH-animals were stimulated continuously with hGH 0.12 mg/kg/day for five days. Animals were anaesthetized and livers were cut out and placed in ice-cold PBS. Livers were then cut into smaller pieces and transferred to 8 ml ice-cold hypotonic buffer with protease and phosphatase inhibitors and were allowed to swell on ice for 10 minutes. […]
as §3

[6] = test system: protein-DNA interaction with AP2 DNA probe; test: EMSA with AP2 DNA probe, HX rat liver nuclear extracts; parameters: species or system Sprague Dawley rat; settings: hGH stimulated animals compared to control animals
Experimental: as §6, §3

[7] = test system: protein-DNA binding to OCT1 DNA probe; test: EMSA with OCT1 DNA probe, HX rat liver nuclear extracts; parameters: species or system Sprague Dawley rat; settings: HX rats stimulated with hGH vs control animals
Experimental: as §6, §3

[8] = target: T1, GH receptor interaction with other transcription factors (Homo sapiens, UniProt P10912); test: Electrophoretic mobility shift assays, GH-receptor transfected cells (summary); assay type: cell-based; settings: treatment with BVTA
T1 construct: Cells were transfected with human full-length GH-receptor (pMB1288, 2 μg/μl); expressed in transfected cells; host or cells: WRL-68 (human fetal hepatic cell line), plasmid pMB1288
T1 sequence (P10912 19-638): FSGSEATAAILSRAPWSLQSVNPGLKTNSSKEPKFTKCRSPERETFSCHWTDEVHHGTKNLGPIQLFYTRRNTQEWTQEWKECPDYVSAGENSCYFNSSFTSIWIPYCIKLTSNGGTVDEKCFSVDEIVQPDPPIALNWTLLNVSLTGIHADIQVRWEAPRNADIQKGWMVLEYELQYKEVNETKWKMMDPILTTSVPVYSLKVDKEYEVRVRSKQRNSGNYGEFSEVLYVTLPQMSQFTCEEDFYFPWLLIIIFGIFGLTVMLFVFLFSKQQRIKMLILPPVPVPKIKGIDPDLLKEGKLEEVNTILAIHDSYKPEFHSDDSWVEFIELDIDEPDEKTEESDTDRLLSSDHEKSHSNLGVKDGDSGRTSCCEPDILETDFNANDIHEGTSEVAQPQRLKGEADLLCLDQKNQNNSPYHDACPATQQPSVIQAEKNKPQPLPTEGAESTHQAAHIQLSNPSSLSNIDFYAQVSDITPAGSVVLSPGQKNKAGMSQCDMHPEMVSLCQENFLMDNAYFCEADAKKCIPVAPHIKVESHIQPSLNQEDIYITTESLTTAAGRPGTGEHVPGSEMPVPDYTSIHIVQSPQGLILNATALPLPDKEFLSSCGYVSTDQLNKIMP
Experimental: Electrophoretic Mobility Shift Assay: Electrophoretic Mobility Shift Assay (EMSA) is a method used to investigate protein-DNA interactions. A DNA probe with a known sequence is end-labeled with ^33P-ATP and then incubated with nuclear extracts. Proteins that bind specifically to the DNA-probe will reduce the mobility of the complex when separated on a non-denaturing poly acryl-amid gel and a shifted band can be seen. To identify proteins bound to the DNA-probe, an antibody can be added to the nuclear extract before incubation with the DNA-probe. If the antibody recognizes a protein that binds to the DNA, the mobility of the complex will be reduced even further and cause a supershift.

[9] = test system: GH-inducible mRNA; test: GH-inducible mRNA level; assay type: cell-based

Compound	protein-DNA interaction, top specific band, AP2 probe [1]	effect of stimulation on shifted bands, GHRE probe ([2]; both GHR-transfected and non-transfected WRL-68 cells)	protein-DNA interaction, top specific band, OCT1 probe [3]	effect on AP1 shifted band [4]	protein-DNA binding, GHRE probe, hGH stimulation [5]	protein-DNA binding, AP2 probe, hGH stimulation [6]	protein-DNA binding, OCT1 probe, hGH stimulation [7]	protein-DNA interaction in top shifted band, GHRE probe ([2]; GHR-transfected WRL-68 cells stimulated with BVTA)	effect on GHRE top weak band ([2]; non-transfected WRL-68 cells, stimulated)	interaction of GH receptor with other transcription factors [8]	GH-inducible mRNA [9]
hGH: human growth hormone (Genotropin, Pharmacia)	no effects	No effect	No effects	no effects	did not show any differences	No difference in protein-DNA binding	did not show any differences				
Cc1ccc(S(N)(=O)=O)cc1NC(=O)c1ccc(Br)o1 [BVTA, N-[5-(aminosulfonyl)-2-methylphenyl]-5-bromo-2-furamide]	broke the protein-DNA interaction		decreased	no effects				disrupted	no effect	down regulated	decrease
